Data published in patent publication US8952157B2, “Apoptosis-inducing agents for the treatment of cancer and immune and autoimmune diseases” (AbbVie Inc., priority 2008, dated 2015).
pKi: −log10 of the molar value.

Molecular target: GST-Bcl-2 (Homo sapiens (Human), UniProt P10415)
Test: Time Resolved-Fluorescence Resonance Energy Transfer (TR-FRET) Bcl-2 binding assay
Conditions: GST-Bcl-2 1 nM, F-Bak peptide probe 100 nM, Tb-anti-GST antibody 1 nM; Ki by Wang's equation
How it was run: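 Competition TR-FRET: GST-Bcl-2 with fluorescent Bak peptide probe and Tb-anti-GST antibody, compounds serially diluted from 50 μM (2× start, 10% DMSO).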

Sequence of GST-Bcl-2 (P10415 whole entry): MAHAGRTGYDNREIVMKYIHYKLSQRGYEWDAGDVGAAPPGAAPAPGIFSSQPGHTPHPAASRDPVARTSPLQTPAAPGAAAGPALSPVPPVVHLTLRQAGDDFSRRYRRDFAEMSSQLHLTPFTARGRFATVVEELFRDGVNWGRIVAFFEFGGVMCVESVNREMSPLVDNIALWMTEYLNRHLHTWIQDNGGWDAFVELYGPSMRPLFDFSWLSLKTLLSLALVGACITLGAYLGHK

| SMILES | pKi |
| --- | --- |
| O=C(NS(=O)(=O)c1ccc(NCCCN2CCOCC2)c([N+](=O)[O-])c1)c1ccc(N2CCN(Cc3ccccc3-c3ccc(Cl)cc3)CC2)cc1Oc1ccc(OCc2ccccc2)cc1 [Example 96, 2-(4-(benzyloxy)phenoxy)-4-(4-((4′-chloro-1,1′-biphenyl-2-yl)methyl)piperazin-1-yl)-N-((4-((3-morpholin-4-ylpropyl)amino)-3-nitrophenyl)sulfonyl)benzamide] | < 5.92 |
| CC(C)(C)OC(=O)N1CCN(c2ccc(Oc3cc(N4CCN(Cc5ccccc5-c5ccc(Cl)cc5)CC4)ccc3C(=O)NS(=O)(=O)c3ccc(NCCCN4CCOCC4)c([N+](=O)[O-])c3)cc2)CC1 [Example 97, tert-butyl 4-(4-(5-(4-((4′-chloro-1,1′-biphenyl-2-yl)methyl)piperazin-1-yl)-2-((((4-((3-morpholin-4-ylpropyl)amino)-3-nitrophenyl)sulfonyl)amino)carbonyl)phenoxy)phenyl)piperazine-1-carboxylate] | 6.83 |
| O=C(NS(=O)(=O)c1ccc(NCCCN2CCOCC2)c([N+](=O)[O-])c1)c1ccc(N2CCN(Cc3ccccc3-c3ccc(Cl)cc3)CC2)cc1Oc1cccc(-c2ccncc2)c1 [Example 98, 4-(4-((4′-chloro-1,1′-biphenyl-2-yl)methyl)piperazin-1-yl)-N-((4-((3-morpholin-4-ylpropyl)amino)-3-nitrophenyl)sulfonyl)-2-(3-pyridin-4-ylphenoxy)benzamide] | 9.02 |
| O=C(NS(=O)(=O)c1ccc(NCCCN2CCOCC2)c([N+](=O)[O-])c1)c1ccc(N2CCN(Cc3ccccc3-c3ccc(Cl)cc3)CC2)cc1Oc1ccc(-c2ccncc2)cc1 [Example 99, 4-(4-((4′-chloro-1,1′-biphenyl-2-yl)methyl)piperazin-1-yl)-N-((4-((3-morpholin-4-ylpropyl)amino)-3-nitrophenyl)sulfonyl)-2-(4-pyridin-4-ylphenoxy)benzamide] | 7.15 |
| O=C(NS(=O)(=O)c1ccc(NCCCN2CCOCC2)c([N+](=O)[O-])c1)c1ccc(N2CCN(Cc3ccccc3-c3ccc(Cl)cc3)CC2)cc1Oc1ccc(-c2cccnc2)cc1 [Example 100, 4-(4-((4′-chloro-1,1′-biphenyl-2-yl)methyl)piperazin-1-yl)-N-((4-((3-morpholin-4-ylpropyl)amino)-3-nitrophenyl)sulfonyl)-2-(4-pyridin-3-ylphenoxy)benzamide] | 6.95 |
| CN(C)C(=O)COc1ccc(Oc2cc(N3CCN(Cc4ccccc4-c4ccc(Cl)cc4)CC3)ccc2C(=O)NS(=O)(=O)c2ccc(NCC3CCOCC3)c([N+](=O)[O-])c2)cc1 [Example 101, 4-(4-((4′-chloro-1,1′-biphenyl-2-yl)methyl)piperazin-1-yl)-2-(4-(2-(dimethylamino)-2-oxoethoxy)phenoxy)-N-((3-nitro-4-((tetrahydro-2H-pyran-4-ylmethyl)amino)phenyl)sulfonyl)benzamide] | 6.17 |
| Cn1cnc2cc(Oc3cc(N4CCN(Cc5ccccc5-c5ccc(Cl)cc5)CC4)ccc3C(=O)NS(=O)(=O)c3ccc(NCCCN4CCOCC4)c([N+](=O)[O-])c3)ccc21 [Example 102, 4-(4-((4′-chloro-1,1′-biphenyl-2-yl)methyl)piperazin-1-yl)-2-((1-methyl-1H-benzimidazol-5-yl)oxy)-N-((4-((3-morpholin-4-ylpropyl)amino)-3-nitrophenyl)sulfonyl)benzamide] | 7.36 |
| CNC(=O)c1cccc(Oc2cc(N3CCN(Cc4ccccc4-c4ccc(Cl)cc4)CC3)ccc2C(=O)NS(=O)(=O)c2ccc(NCCCN3CCOCC3)c([N+](=O)[O-])c2)c1 [Example 103, 4-(4-((4′-chlorobiphenyl-2-yl)methyl)piperazin-1-yl)-2-(3-(methylcarbamoyl)phenoxy)-N-(4-(3-morpholinopropylamino)-3-nitrophenylsulfonyl)benzamide] | 8.17 |
| CNC(=O)c1cccc(Oc2cc(N3CCN(Cc4ccccc4-c4ccc(Cl)cc4)CC3)ccc2C(=O)NS(=O)(=O)c2ccc(NCCCN(C)C)c([N+](=O)[O-])c2)c1 [Example 104, 4-(4-((4′-chlorobiphenyl-2-yl)methyl)piperazin-1-yl)-N-(4-(3-(dimethylamino)propylamino)-3-nitrophenylsulfonyl)-2-(3-(methylcarbamoyl)phenoxy)benzamide] | 8.63 |
| CN(C)C(=O)COc1cccc(Oc2cc(N3CCN(Cc4ccccc4-c4ccc(Cl)cc4)CC3)ccc2C(=O)NS(=O)(=O)c2ccc(NCC3CCOCC3)c([N+](=O)[O-])c2)c1 [Example 105, 4-(4-((4′-chloro-1,1′-biphenyl-2-yl)methyl)piperazin-1-yl)-2-(3-(2-(dimethylamino)-2-oxoethoxy)phenoxy)-N-((3-nitro-4-((tetrahydro-2H-pyran-4-ylmethyl)amino)phenyl)sulfonyl)benzamide] | 8.45 |
| CN(C)CCCc1c[nH]c2ccc(Oc3cc(N4CCN(Cc5ccccc5-c5ccc(Cl)cc5)CC4)ccc3C(=O)NS(=O)(=O)c3ccc(NCC4CCOCC4)c([N+](=O)[O-])c3)cc12 [Example 106, 4-(4-((4′-chloro-1,1′-biphenyl-2-yl)methyl)piperazin-1-yl)-2-((3-(3-(dimethylamino)propyl)-1H-indol-5-yl)oxy)-N-((3-nitro-4-((tetrahydro-2H-pyran-4-ylmethyl)amino)phenyl)sulfonyl)benzamide] | 6.67 |
| CN(C)CCCNc1ccc(S(=O)(=O)NC(=O)c2ccc(N3CCN(Cc4ccccc4-c4ccc(Cl)cc4)CC3)cc2Oc2cccc(CO)c2)cc1[N+](=O)[O-] [Example 107, 4-(4-((4′-chloro-1,1′-biphenyl-2-yl)methyl)piperazin-1-yl)-N-((4-((3-(dimethylamino)propyl)amino)-3-nitrophenyl)sulfonyl)-2-(3-(hydroxymethyl)phenoxy)benzamide] | 9.48 |
| CC1(C)CCC(CN2CCN(c3ccc(C(=O)NS(=O)(=O)c4ccc(NCC5(N)CCOCC5)c([N+](=O)[O-])c4)c(Oc4cccc(Cl)c4)c3)CC2)=C(c2ccc(Cl)cc2)C1 [Example 109, N-[(4-{[(4-aminotetrahydro-2H-pyran-4-yl)methyl]amino}-3-nitrophenyl)sulfonyl]-2-(3-chlorophenoxy)-4-(4-{[2-(4-chlorophenyl)-4,4-dimethylcyclohex-1-en-1-yl]methyl}piperazin-1-yl)benzamide] | 9.63 |
| CC(c1ccccc1-c1ccc(Cl)cc1)N1CCN(c2ccc(C(=O)NS(=O)(=O)c3ccc(NCC4CCOCC4)c([N+](=O)[O-])c3)c(Oc3ccccc3Cl)c2)CC1 (stereo not drawn) [Example 110, 4-{4-[1-(4′-chloro-1,1′-biphenyl-2-yl)ethyl]piperazin-1-yl}-2-(2-chlorophenoxy)-N-({3-nitro-4-[(tetrahydro-2H-pyran-4-ylmethyl)amino]phenyl}sulfonyl)benzamide] | 10.41 |
| CN1CCC(Nc2ccc(C(=O)NS(=O)(=O)c3ccc(N4CCN(Cc5ccccc5-c5ccc(Cl)cc5)CC4)cc3Oc3cc(Cl)cc(Cl)c3)cc2[N+](=O)[O-])CC1 [Example 111, N-{[4-{4-[(4′-chloro-1,1′-biphenyl-2-yl)methyl]piperazin-1-yl}-2-(3,5-dichlorophenoxy)phenyl]sulfonyl}-4-[(1-methylpiperidin-4-yl)amino]-3-nitrobenzamide] | 7.76 |
| CN1CCC(Nc2ccc(S(=O)(=O)NC(=O)c3ccc(N4CCN(CC5=C(c6ccc(Cl)cc6)CC(C)(C)CC5)CC4)cc3Oc3cccc(F)c3)cc2[N+](=O)[O-])CC1 [Example 112, 4-(4-{[2-(4-chlorophenyl)-4,4-dimethylcyclohex-1-en-1-yl]methyl}piperazin-1-yl)-2-(3-fluorophenoxy)-N-({4-[(1-methylpiperidin-4-yl)amino]-3-nitrophenyl}sulfonyl)benzamide] | 10.38 |
| CC1(C)CCC(CN2CCN(c3ccc(C(=O)NS(=O)(=O)c4ccc(NC5CCN(C6CCOCC6)CC5)c([N+](=O)[O-])c4)c(Oc4cccc(F)c4)c3)CC2)=C(c2ccc(Cl)cc2)C1 [Example 113, 4-(4-{[2-(4-chlorophenyl)-4,4-dimethylcyclohex-1-en-1-yl]methyl}piperazin-1-yl)-2-(3-fluorophenoxy)-N-({3-nitro-4-[(1-tetrahydro-2H-pyran-4-ylpiperidin-4-yl)amino]phenyl}sulfonyl)benzamide] | 10.49 |
| CC1(C)CCC(CN2CCN(c3ccc(C(=O)NS(=O)(=O)c4ccc(NC5CCN(C6CCOCC6)CC5)c([N+](=O)[O-])c4)c(Oc4ccccc4Cl)c3)CC2)=C(c2ccc(Cl)cc2)C1 [Example 115, 2-(2-chlorophenoxy)-4-(4-{[2-(4-chlorophenyl)-4,4-dimethylcyclohex-1-en-1-yl]methyl}piperazin-1-yl)-N-({3-nitro-4-[(1-tetrahydro-2H-pyran-4-ylpiperidin-4-yl)amino]phenyl}sulfonyl)benzamide] | 10.38 |
| CC1(C)CCC(CN2CCN(c3ccc(C(=O)NS(=O)(=O)c4ccc(NCCCN5CCOCC5)c([N+](=O)[O-])c4)c(Oc4ccccc4Cl)c3)CC2)=C(c2ccc(Cl)cc2)C1 [Example 116, 2-(2-chlorophenoxy)-4-(4-{[2-(4-chlorophenyl)-4,4-dimethylcyclohex-1-en-1-yl]methyl}piperazin-1-yl)-N-({4-[(3-morpholin-4-ylpropyl)amino]-3-nitrophenyl}sulfonyl)benzamide] | 9.91 |
| CC1(C)CCC(CN2CCN(c3ccc(C(=O)NS(=O)(=O)c4ccc(NC5CCN(C6CCCC6)CC5)c([N+](=O)[O-])c4)c(Oc4ccccc4Cl)c3)CC2)=C(c2ccc(Cl)cc2)C1 [Example 117, 2-(2-chlorophenoxy)-4-(4-{[2-(4-chlorophenyl)-4,4-dimethylcyclohex-1-en-1-yl]methyl}piperazin-1-yl)-N-({4-[(1-cyclopentylpiperidin-4-yl)amino]-3-nitrophenyl}sulfonyl)benzamide] | 10.14 |
| CN1CCC(Nc2ccc(S(=O)(=O)NC(=O)c3ccc(N4CCN(CC5=C(c6ccc(Cl)cc6)CC(C)(C)CC5)CC4)cc3Oc3ccc(F)cc3)cc2[N+](=O)[O-])CC1 [Example 118, 4-(4-{[2-(4-chlorophenyl)-4,4-dimethylcyclohex-1-en-1-yl]methyl}piperazin-1-yl)-2-(4-fluorophenoxy)-N-({4-[(1-methylpiperidin-4-yl)amino]-3-nitrophenyl}sulfonyl)benzamide] | 9.82 |
